Test results published in patent US10087199B2, “Super-resolution imaging compositions and methods using same” (Yale University, priority 2014, dated 2018).
“Also recorded” adds a separate entry of the source.

System: HeLa cells stably transfected to express GalNAcT2-GFP (Golgi)
Assay: Incubation with premixed/preassembled Cer-SiR (Golgi labeling)
Format: cell-based
Details: approximately 2 μM Cer-SiR solution; three protocols A-C
Method: An approximately 2 μM solution of Cer-SiR was prepared as follows: Stock solutions in DMSO of SiR-Tz and Cer-TCO were added to a PBS buffer supplemented with 1% casein to achieve a final concentration of 2 μM for both components. The solution was thoroughly mixed and incubated for 15 min at room temperature. Before the solution was added to dishes containing cells, Pluronic F-127 was added (0.2% final concentration). The formation of Cer-SiR was confirmed by HPLC.
Protocol A: HeLa cells stably transfected to express GalNAcT2-GFP were cultured on 35 mm glass bottom dishes (Mattek), washed with DMEM (3×) and incubated with the Cer-SiR solution (prepared as described elsewhere herein) for 5 min at 37° C. The dish was washed with DMEM (3×) and incubated at 19.5° C. for 60 min, washed with DMEM (3×) and imaged.
Protocol B: Same as protocol A, but without the wash step before the incubation at 19.5° C.
Protocol C: HeLa cells stably transfected to express GalNAcT2-GFP were cultured on 35 mm glass bottom dishes (Mattek), washed with DMEM (3×) and incubated with the Cer-SiR solution described for 30 min at 4° C. The dish was washed with DMEM (3×) and incubated at 37° C. for 30 min, washed with DMEM (3×) and imaged. This protocol was similar to the protocol used for Golgi labeling with BODIPY-Cer.

With `CCCCCCCCCCCCC/C=C/[C@@H](O)[C@H](CO)NC(=O)CCCCCNC(=O)OC1CCCC2=C(c3ccc(CNC(=O)c4ccc(C(=O)[O-])c(C5=C6C=CC(=[N+](C)C)C=C6[Si](C)(C)c6cc(N(C)C)ccc65)c4)cc3)NN=CC2CC1` (stereo partly drawn) [Cer-SiR, 4-((4-(7-(((6-(((2S,3R,E)-1,3-dihydroxyoctadec-4-en-2-yl)amino)-6-oxohexyl)carbamoyl)oxy)-2,4a,5,6,7,8,9,10-octahydrocycloocta[d]pyridazin-1-yl)benzyl)carbamoyl)-2-(7-(dimethylamino)-3-(dimethyliminio)-5,5-dimethyl-3,5-dihydrodibenzo[b,e]silin-10-yl)benzoate] the “Golgi labeling with preassembled Cer-SiR” value was “not suitable for Golgi labeling; also recorded: did not lead to Golgi labeling”.
